Laboratory results as given in patent publication US20260274829A1, “NEW E3 UBIQUITIN LIGASE LIGAND, PROTEIN DEGRADATION AGENT AND USE THEREOF” (GLUETACS THERAPEUTICS (SHANGHAI) CO., LTD., priority 2023, published 2026).

Experiments:
Assay type in all cases: cell-based
[1] = molecular target: T1, IKZF2 (Homo sapiens, UniProt Q96SW2+Q9UKS7); assay: Western blot degradation of IKZF2 in hPBMC
T1 construct: endogenous in cells; host or cells: hPBMC
Outline: (§1)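 hPBMC, compound-treated; SDS-PAGE Western, NC membrane, 1 h RT block. DC50 = conc. at 50% of DMSO band grayscale (curve fit). % remaining = target/internal control band ratio, normalized.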

[2] = molecular target: T2, WEE1 (Homo sapiens, UniProt P30291+Q96SW2); assay: Western blot degradation of WEE1 in hPBMC
T2 construct: endogenous in cells; host or cells: hPBMC
Outline: as §1

[3] = molecular target: T3, GSPT1 (Homo sapiens, UniProt P15170+Q96SW2); assay: Western blot degradation of GSPT1 in hPBMC
T3 construct: endogenous in cells; host or cells: hPBMC
Outline: as §1

[4] = molecular target: T4, IKZF1 (Homo sapiens, UniProt Q13422+Q96SW2); assay: Western blot degradation of IKZF1 in hPBMC
T4 construct: endogenous in cells; host or cells: hPBMC
Outline: as §1

[5] = molecular target: T5, IKZF3 (Homo sapiens, UniProt Q96SW2+Q9UKT9); assay: Western blot degradation of IKZF3 in hPBMC
T5 construct: endogenous in cells; host or cells: hPBMC
Outline: as §1

[6] = molecular target: T6, CK1a (Homo sapiens, UniProt P48729+Q96SW2); assay: Western blot degradation of CK1a in hPBMC
T6 construct: endogenous in cells; host or cells: hPBMC
Outline: as §1

T4 sequence (Q13422 whole entry): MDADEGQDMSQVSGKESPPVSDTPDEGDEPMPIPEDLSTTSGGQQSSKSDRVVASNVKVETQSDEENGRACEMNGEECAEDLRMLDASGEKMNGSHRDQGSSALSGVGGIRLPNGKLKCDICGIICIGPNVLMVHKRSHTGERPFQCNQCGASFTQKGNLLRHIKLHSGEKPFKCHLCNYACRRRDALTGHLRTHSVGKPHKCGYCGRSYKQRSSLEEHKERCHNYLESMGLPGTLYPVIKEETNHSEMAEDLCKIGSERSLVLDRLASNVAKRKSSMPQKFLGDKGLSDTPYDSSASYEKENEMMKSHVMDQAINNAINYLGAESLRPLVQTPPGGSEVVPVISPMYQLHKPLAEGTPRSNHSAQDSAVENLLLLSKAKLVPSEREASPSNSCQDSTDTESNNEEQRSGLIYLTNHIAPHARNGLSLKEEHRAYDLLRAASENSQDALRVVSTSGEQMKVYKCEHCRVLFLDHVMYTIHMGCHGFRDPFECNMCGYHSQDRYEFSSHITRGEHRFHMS
T4 sequence (Q96SW2 whole entry): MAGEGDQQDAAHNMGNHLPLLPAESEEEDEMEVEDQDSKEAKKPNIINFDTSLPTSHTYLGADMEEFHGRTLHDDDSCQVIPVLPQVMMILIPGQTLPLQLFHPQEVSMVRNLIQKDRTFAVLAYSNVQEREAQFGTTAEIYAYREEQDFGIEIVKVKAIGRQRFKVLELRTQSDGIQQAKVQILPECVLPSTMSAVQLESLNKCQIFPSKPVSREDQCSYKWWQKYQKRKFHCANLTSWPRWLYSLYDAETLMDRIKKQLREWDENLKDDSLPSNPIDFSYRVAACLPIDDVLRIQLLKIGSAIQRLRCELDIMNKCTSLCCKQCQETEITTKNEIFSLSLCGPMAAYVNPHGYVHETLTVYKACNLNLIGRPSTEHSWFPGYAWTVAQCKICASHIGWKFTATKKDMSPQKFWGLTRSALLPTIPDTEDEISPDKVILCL
T4 sequence (Q16531 whole entry partner): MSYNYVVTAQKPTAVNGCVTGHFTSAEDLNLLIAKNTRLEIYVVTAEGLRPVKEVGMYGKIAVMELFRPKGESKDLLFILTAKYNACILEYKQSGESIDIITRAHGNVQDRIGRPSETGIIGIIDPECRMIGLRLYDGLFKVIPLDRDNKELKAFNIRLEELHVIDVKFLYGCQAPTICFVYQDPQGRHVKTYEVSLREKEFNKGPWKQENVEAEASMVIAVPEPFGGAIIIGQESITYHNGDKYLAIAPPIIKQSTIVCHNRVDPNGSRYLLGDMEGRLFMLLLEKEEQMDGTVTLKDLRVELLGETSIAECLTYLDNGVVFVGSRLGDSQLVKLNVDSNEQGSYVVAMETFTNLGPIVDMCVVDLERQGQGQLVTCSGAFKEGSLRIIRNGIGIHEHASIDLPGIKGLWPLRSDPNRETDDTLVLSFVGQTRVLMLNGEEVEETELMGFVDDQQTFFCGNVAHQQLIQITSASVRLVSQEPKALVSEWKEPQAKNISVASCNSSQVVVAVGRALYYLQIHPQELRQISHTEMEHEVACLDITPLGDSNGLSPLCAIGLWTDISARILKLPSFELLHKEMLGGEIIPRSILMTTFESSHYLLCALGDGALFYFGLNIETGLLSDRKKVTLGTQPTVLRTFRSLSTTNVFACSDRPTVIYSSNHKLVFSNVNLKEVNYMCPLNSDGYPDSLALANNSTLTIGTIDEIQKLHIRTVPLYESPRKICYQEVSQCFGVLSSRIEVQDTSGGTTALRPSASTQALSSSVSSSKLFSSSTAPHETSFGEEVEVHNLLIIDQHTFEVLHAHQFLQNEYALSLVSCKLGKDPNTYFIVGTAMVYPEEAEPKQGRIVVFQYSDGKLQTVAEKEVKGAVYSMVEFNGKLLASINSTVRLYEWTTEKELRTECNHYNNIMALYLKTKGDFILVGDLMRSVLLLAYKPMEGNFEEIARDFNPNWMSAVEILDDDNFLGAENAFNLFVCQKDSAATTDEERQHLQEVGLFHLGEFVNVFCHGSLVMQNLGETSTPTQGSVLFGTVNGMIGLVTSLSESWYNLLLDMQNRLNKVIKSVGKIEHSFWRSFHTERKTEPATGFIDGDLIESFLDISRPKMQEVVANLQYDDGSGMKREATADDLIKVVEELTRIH
T5 sequence (Q9UKT9 whole entry): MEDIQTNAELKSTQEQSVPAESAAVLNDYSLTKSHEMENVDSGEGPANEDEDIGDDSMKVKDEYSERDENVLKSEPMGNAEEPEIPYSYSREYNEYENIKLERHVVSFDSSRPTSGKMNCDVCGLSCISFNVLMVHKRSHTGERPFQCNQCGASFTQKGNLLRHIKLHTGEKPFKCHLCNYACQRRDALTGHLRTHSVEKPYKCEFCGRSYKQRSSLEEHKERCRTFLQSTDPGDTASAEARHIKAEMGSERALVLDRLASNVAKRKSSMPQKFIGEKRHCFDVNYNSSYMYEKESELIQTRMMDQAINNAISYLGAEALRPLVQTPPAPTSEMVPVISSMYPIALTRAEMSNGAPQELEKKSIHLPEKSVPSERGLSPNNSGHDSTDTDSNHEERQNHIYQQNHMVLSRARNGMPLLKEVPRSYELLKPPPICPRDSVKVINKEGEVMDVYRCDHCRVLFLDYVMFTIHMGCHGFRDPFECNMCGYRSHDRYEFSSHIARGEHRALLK
T5 sequence (Q96SW2 whole entry): as the sequence (Q96SW2 whole entry) above
T5 sequence (Q16531 whole entry partner): as the sequence (Q16531 whole entry partner) above
T3 sequence (P15170 whole entry): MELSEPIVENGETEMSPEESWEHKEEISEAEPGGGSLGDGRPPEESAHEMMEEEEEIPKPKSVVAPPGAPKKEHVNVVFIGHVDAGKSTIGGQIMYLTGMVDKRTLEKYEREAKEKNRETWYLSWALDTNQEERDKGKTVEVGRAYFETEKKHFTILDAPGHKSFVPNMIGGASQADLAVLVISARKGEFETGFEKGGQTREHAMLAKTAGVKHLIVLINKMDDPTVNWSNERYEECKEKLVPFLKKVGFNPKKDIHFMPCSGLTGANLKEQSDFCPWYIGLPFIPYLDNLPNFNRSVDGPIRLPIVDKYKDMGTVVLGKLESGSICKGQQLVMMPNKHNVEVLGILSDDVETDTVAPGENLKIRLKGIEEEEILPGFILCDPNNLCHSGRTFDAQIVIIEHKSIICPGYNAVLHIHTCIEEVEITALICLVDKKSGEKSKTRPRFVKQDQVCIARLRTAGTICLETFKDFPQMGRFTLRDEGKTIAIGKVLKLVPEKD
T3 sequence (Q96SW2 whole entry): as the sequence (Q96SW2 whole entry) above
T3 sequence (Q16531 whole entry partner): as the sequence (Q16531 whole entry partner) above
T6 sequence (P48729 whole entry): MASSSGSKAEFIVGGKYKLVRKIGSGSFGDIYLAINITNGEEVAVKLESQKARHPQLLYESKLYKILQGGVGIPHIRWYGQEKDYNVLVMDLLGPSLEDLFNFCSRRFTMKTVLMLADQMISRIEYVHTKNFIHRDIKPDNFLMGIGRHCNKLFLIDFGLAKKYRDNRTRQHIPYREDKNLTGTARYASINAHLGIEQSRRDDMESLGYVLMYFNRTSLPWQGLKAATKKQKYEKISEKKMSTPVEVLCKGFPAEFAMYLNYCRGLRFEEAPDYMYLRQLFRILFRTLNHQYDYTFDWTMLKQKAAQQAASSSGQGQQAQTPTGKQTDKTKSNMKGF
T6 sequence (Q96SW2 whole entry): as the sequence (Q96SW2 whole entry) above
T6 sequence (Q16531 whole entry partner): as the sequence (Q16531 whole entry partner) above
T1 sequence (Q9UKS7 whole entry): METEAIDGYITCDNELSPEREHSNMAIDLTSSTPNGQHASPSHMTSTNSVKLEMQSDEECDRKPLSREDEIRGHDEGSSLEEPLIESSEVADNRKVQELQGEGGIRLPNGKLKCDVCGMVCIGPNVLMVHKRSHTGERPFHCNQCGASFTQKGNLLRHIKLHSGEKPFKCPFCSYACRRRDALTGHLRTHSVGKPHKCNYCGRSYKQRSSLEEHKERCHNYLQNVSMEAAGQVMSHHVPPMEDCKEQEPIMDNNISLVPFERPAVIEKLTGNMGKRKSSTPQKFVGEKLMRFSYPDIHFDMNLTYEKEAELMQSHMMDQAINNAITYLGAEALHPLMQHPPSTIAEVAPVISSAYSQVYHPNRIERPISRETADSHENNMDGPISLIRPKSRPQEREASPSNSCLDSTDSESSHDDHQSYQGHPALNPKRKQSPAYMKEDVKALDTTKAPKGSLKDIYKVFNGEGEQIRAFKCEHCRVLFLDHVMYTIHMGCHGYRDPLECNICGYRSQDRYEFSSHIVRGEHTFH
T1 sequence (Q96SW2 whole entry): as the sequence (Q96SW2 whole entry) above
T1 sequence (Q16531 whole entry partner): as the sequence (Q16531 whole entry partner) above

| Structure (SMILES) | Degradation of substrate protein IKZF2 (substrate protein remaining %) [1] | Degradation of substrate protein WEE1 (substrate protein remaining %) [2] | Degradation of substrate protein GSPT1 (substrate protein remaining %) [3] | Degradation of substrate protein IKZF1 (substrate protein remaining %) [4] | Degradation of substrate protein IKZF3 (substrate protein remaining %) [5] | Degradation of substrate protein CK1a (substrate protein remaining %) [6] |
| --- | --- | --- | --- | --- | --- | --- |
| O=C1CCN(c2cnc(CO)cn2)C(=O)N1 [GT-07634, 1-(5-(hydroxymethyl)pyrazin-2-yl)dihydropyrimidine-2,4(1H,3H)-dione] | A (A is defined as 0% ≤ substrate protein remaining % ≤ 80%) | A (A is defined as 0% ≤ substrate protein remaining % ≤ 80%) | B (B is defined as substrate protein remaining % > 80%) | A (A is defined as 0% ≤ substrate protein remaining % ≤ 80%) | A (A is defined as 0% ≤ substrate protein remaining % ≤ 80%) | A (A is defined as 0% ≤ substrate protein remaining % ≤ 80%) |
| O=C1CCN(c2cnc(CCl)cn2)C(=O)N1 [GT-07635, 1-(5-(chloromethyl)pyrazin-2-yl)dihydropyrimidine-2,4(1H,3H)-dione] | A (A is defined as 0% ≤ substrate protein remaining % ≤ 80%) | A (A is defined as 0% ≤ substrate protein remaining % ≤ 80%) | B (B is defined as substrate protein remaining % > 80%) | A (A is defined as 0% ≤ substrate protein remaining % ≤ 80%) | A (A is defined as 0% ≤ substrate protein remaining % ≤ 80%) | A (A is defined as 0% ≤ substrate protein remaining % ≤ 80%) |
| O=C1CCC(c2ccc(CO)nn2)C(=O)N1 (stereo not drawn) [GT-07636, 3-(6-(hydroxymethyl)pyridazin-3-yl)piperidine-2,6-dione] | A (A is defined as 0% ≤ substrate protein remaining % ≤ 80%) | B (B is defined as substrate protein remaining % > 80%) | A (A is defined as 0% ≤ substrate protein remaining % ≤ 80%) | A (A is defined as 0% ≤ substrate protein remaining % ≤ 80%) | A (A is defined as 0% ≤ substrate protein remaining % ≤ 80%) | B (B is defined as substrate protein remaining % > 80%) |
| CC(C)(C)[Si](C)(C)OCc1ccncc1NC1CCC(=O)NC1=O (stereo not drawn) [GT-07638, 3-((4-(((tert-butyldimethylsilyl)oxy)methyl)pyridin-3-yl)amino)piperidine-2,6-dione] | A (A is defined as 0% ≤ substrate protein remaining % ≤ 80%) | A (A is defined as 0% ≤ substrate protein remaining % ≤ 80%) | A (A is defined as 0% ≤ substrate protein remaining % ≤ 80%) | B (B is defined as substrate protein remaining % > 80%) | A (A is defined as 0% ≤ substrate protein remaining % ≤ 80%) | B (B is defined as substrate protein remaining % > 80%) |
| CC(C)(C)[Si](C)(C)OCc1cncnc1NC1CCC(=O)NC1=O (stereo not drawn) [GT-07639, 3-((5-(((tert-butyldimethylsilyl)oxy)methyl)pyrimidin-4-yl)amino)piperidine-2,6-dione] | A (A is defined as 0% ≤ substrate protein remaining % ≤ 80%) | A (A is defined as 0% ≤ substrate protein remaining % ≤ 80%) | A (A is defined as 0% ≤ substrate protein remaining % ≤ 80%) | A (A is defined as 0% ≤ substrate protein remaining % ≤ 80%) | A (A is defined as 0% ≤ substrate protein remaining % ≤ 80%) | A (A is defined as 0% ≤ substrate protein remaining % ≤ 80%) |
| O=Cc1ccc(NC2CCC(=O)NC2=O)cn1 (stereo not drawn) [GT-07640, 5-((2,6-dioxopiperidin-3-yl)amino)picolinaldehyde] | A (A is defined as 0% ≤ substrate protein remaining % ≤ 80%) | A (A is defined as 0% ≤ substrate protein remaining % ≤ 80%) | A (A is defined as 0% ≤ substrate protein remaining % ≤ 80%) | A (A is defined as 0% ≤ substrate protein remaining % ≤ 80%) | A (A is defined as 0% ≤ substrate protein remaining % ≤ 80%) | B (B is defined as substrate protein remaining % > 80%) |
| CC(C)(C)[Si](C)(C)OCc1cc(NC2CCC(=O)NC2=O)ncc1F (stereo not drawn) [GT-07724, 3-((4-(((tert-butyldimethylsilyl)oxy)methyl)-5-fluoropyridin-2-yl)amino)piperidine-2,6-dione] | A (A is defined as 0% ≤ substrate protein remaining % ≤ 80%) | A (A is defined as 0% ≤ substrate protein remaining % ≤ 80%) | A (A is defined as 0% ≤ substrate protein remaining % ≤ 80%) | A (A is defined as 0% ≤ substrate protein remaining % ≤ 80%) | A (A is defined as 0% ≤ substrate protein remaining % ≤ 80%) | B (B is defined as substrate protein remaining % > 80%) |
| O=C1CCC(Nc2cc(CO)c(F)cn2)C(=O)N1 (stereo not drawn) [GT-07725, 3-((5-fluoro-4-(hydroxymethyl)pyridin-2-yl)amino)piperidine-2,6-dione] | A (A is defined as 0% ≤ substrate protein remaining % ≤ 80%) | A (A is defined as 0% ≤ substrate protein remaining % ≤ 80%) | A (A is defined as 0% ≤ substrate protein remaining % ≤ 80%) | A (A is defined as 0% ≤ substrate protein remaining % ≤ 80%) | A (A is defined as 0% ≤ substrate protein remaining % ≤ 80%) | B (B is defined as substrate protein remaining % > 80%) |
| CC(C)(C)[Si](C)(C)OCc1ccc(NC2CCC(=O)NC2=O)nn1 (stereo not drawn) [GT-07726, 3-((6-(((tert-butyldimethylsilyl)oxy)methyl)pyridazin-3-yl)amino)piperidine-2,6-dione] | A (A is defined as 0% ≤ substrate protein remaining % ≤ 80%) | A (A is defined as 0% ≤ substrate protein remaining % ≤ 80%) | B (B is defined as substrate protein remaining % > 80%) | A (A is defined as 0% ≤ substrate protein remaining % ≤ 80%) | A (A is defined as 0% ≤ substrate protein remaining % ≤ 80%) | B (B is defined as substrate protein remaining % > 80%) |
| O=C1CCC(Nc2ncncc2CO)C(=O)N1 (stereo not drawn) [GT-07727, 3-((5-(hydroxymethyl)pyrimidin-4-yl)amino)piperidine-2,6-dione] | A (A is defined as 0% ≤ substrate protein remaining % ≤ 80%) | A (A is defined as 0% ≤ substrate protein remaining % ≤ 80%) | B (B is defined as substrate protein remaining % > 80%) | A (A is defined as 0% ≤ substrate protein remaining % ≤ 80%) | A (A is defined as 0% ≤ substrate protein remaining % ≤ 80%) | B (B is defined as substrate protein remaining % > 80%) |
| O=C1CCN(c2cncc(CCl)n2)C(=O)N1 [GT-07728, 1-(6-(chloromethyl)pyrazin-2-yl)dihydropyrimidine-2,4(1H,3H)-dione] | A (A is defined as 0% ≤ substrate protein remaining % ≤ 80%) | A (A is defined as 0% ≤ substrate protein remaining % ≤ 80%) | B (B is defined as substrate protein remaining % > 80%) | A (A is defined as 0% ≤ substrate protein remaining % ≤ 80%) | A (A is defined as 0% ≤ substrate protein remaining % ≤ 80%) | B (B is defined as substrate protein remaining % > 80%) |
| NCc1cc(N2CCC(=O)NC2=O)cnc1F [GT-07729, 1-(5-(aminomethyl)-6-fluoropyridin-3-yl)dihydropyrimidine-2,4(1H,3H)-dione] | A (A is defined as 0% ≤ substrate protein remaining % ≤ 80%) | A (A is defined as 0% ≤ substrate protein remaining % ≤ 80%) | A (A is defined as 0% ≤ substrate protein remaining % ≤ 80%) | A (A is defined as 0% ≤ substrate protein remaining % ≤ 80%) | A (A is defined as 0% ≤ substrate protein remaining % ≤ 80%) | B (B is defined as substrate protein remaining % > 80%) |
